From patent US4419355A, “Condensed as-triazine derivatives and method of using the same” (Egyt Gyogyszervegyeszeti Gyar, priority 1980, dated 1983)

Assays:
yohimbine toxicity = assay: Potentiation of yohimbine toxicity on mice; assay type: in vivo; conditions: for ED50: Mus musculus, po; for Therapeutic index LD50/ED50: p.o., mice, yohimbine potentiation
Method: The experiments were carried out by the method of Quinton et al. The test compound was administered orally in a volume of 20 ml/kg half an hour before the administration of the standard yohimbine dose.

[1] = system: Reserpine-ethanol narcose; assay: Reserpine-ethanol narcose antagonism on rats; assay type: in vivo; conditions: for ED50: Rattus norvegicus, read-out: Reserpine-ethanol narcose ant. ED50; for Ther. index: reserpine-ethanol narcose ant.
Method: (§1) The experiments were carried out on the analogy of the tests described at point (a).

[2] = Acute toxicity on rats (oral); conditions: rat, in vivo, p.o., Wistar rats, 0.5% suspension with carboxymethylcellulose
Method: The acute toxicity was investigated also on Wistar rats. A 0.5% suspension prepared from the test compound and carboxymethylcellulose was administered orally to the animals.

tetrabenazine ptosis [3] = assay: Tetrabenazine antagonism on mice; conditions: for ED50: Mus musculus, po; for Therapeutic index LD50/ED50: p.o., mice, tetrabenazine antagonism
Method: Groups of animals consisting of 10-20 mice each were examined. A 0.9% sodium chloride solution was administered to the mice of the control group in a dosage of 20 ml/kg. After 30 minutes 50 mg/kg of tetrabenazine were administered. The animals with closed interpalpebral zone were counted 30, 60, 90 and 120 minutes after the administration of the tetrabenazine. The data were summarized and the inhibition in comparison with the control was determined.

[4] = Acute toxicity on mice (oral); conditions: mouse, in vivo, p.o., CFLP mice, 20 ml/kg, 4 days observation
Method: The acute toxicity of the new compounds according to the invention was determined on white mice of both sexes weighing 18-24 g belonging to the strain CFLP. Administration was effected with an oral dosage of 20 ml/kg. After treatment the animals were kept under observation for 4 days.

tetrabenazine ptosis [5] = assay: Tetrabenazine ptosis antagonism on rats; assay type: in vivo; conditions: for ED50: Rattus norvegicus, read-out: Tetrabenazine ptosis ant. ED50; for Therapeutic index: tetrabenazine ptosis ant.
Method: as §1

Structure (SMILES)	ED50 (yohimbine toxicity) [mg/kg]	Therapeutic index LD50/ED50 (yohimbine toxicity)	ED50 [1] [mg/kg]	Ther. index [1]	LD50 [2] [mg/kg]	ED50 (tetrabenazine ptosis [3]) [mg/kg]	Therapeutic index LD50/ED50 (tetrabenazine ptosis [3])	LD50 at 96 h [4] [mg/kg]	ED50 (tetrabenazine ptosis [5]) [mg/kg]	Therapeutic index (tetrabenazine ptosis [5])
Clc1ccc(-c2ncn[n+]3ccc4ccccc4c23)cc1 [Compound C, 1-(4-chlorophenyl)-as-triazino[6,1-a]-isoquinolinium bromide]	3.5	171.4	40	25.0	1000	3.2	187.5	600	5.6	178.6
CN(C)CCC=C1c2ccccc2CCc2ccccc21 [Amitriptylin, reference compound]	–	–	40	13.25	530	12	18.75	225	11.5	46.1
c1ccc(-c2ncn[n+]3ccccc23)cc1 [Compound A, 1-phenyl-pyrido[2,1-f]-as-triazinium bromide]	66	21.2	–	–	–	30	46.7	1400	–	–
Clc1ccc(-c2ncn[n+]3ccccc23)cc1 [Compound B, 1-(4-chlorophenyl)-pyrido[2,1-f]-as-triazinium bromide]	50	18.0	–	–	–	14	64.2	900	–	–
